Data taken from patent publication US12371454B2, “Cyclic peptide compound having Kras inhibitory action” (priority 2019, dated 2025).
Starred links: 1 amine or outer side, 2 acyl side, 3 side chain; linkers in the order of their positions; H or OH if unused. Positions of bridges follow the written chain, without caps; N, C: chain ends. Non-standard residues stand in square brackets, D forms with d. Residues, ends and D or L forms follow the SMILES beside them. *: point of attachment. hPhe(3-Cl-4-CF3) = N[C@@H](CCc1ccc(C(F)(F)F)c(Cl)c1)C(=O)O; hPhe(3-F,4-CF3) = N[C@@H](CCc1ccc(C(F)(F)F)c(F)c1)C(=O)O; 3Oxa8azabicyclo(3.2.1)octane = C1CC2COCC1N2*; NMeAbu(4,4,4-F3) = CN[C@@H](CC(F)(F)F)C(=O)O; NMePhe(4-Me) = CN[C@@H](Cc1ccc(C)cc1)C(=O)O; NMeAla(cPent) = CN[C@@H](CC1CCCC1)C(=O)O; NMeGly(cPent) = CN[C@H](C(=O)O)C1CCCC1; NMe3Pal = CN[C@@H](Cc1cccnc1)C(=O)O; NMeGly(cBu) = CN[C@H](C(=O)O)C1CCC1; Gly(cPent) = N[C@H](C(=O)O)C1CCCC1; NMeCha = CN[C@@H](CC1CCCCC1)C(=O)O; X2 = C=CC[C@](C)(N[*:1])C(=O)[*:2]; NMeCba = CN[C@@H](CC1CCC1)C(=O)O; NMeChg = CN[C@H](C(=O)O)C1CCCCC1; NMeI = CC[C@H](C)[C@H](NC)C(=O)O; NMeT = CN[C@H](C(=O)O)[C@@H](C)O; Piperidide(4-Me) = CC1CCN(*)CC1; NMeD = CN[C@@H](CC(=O)O)C(=O)O; NMeL = CN[C@@H](CC(C)C)C(=O)O; NMeV = CN[C@H](C(=O)O)C(C)C; d(β3hA) = C[C@@H](N)CC(=O)O; dIva = CC[C@@](C)(N)C(=O)O; NMeS = CN[C@@H](CO)C(=O)O; Morpholide = C1CN(*)CCO1; NMeA = CN[C@@H](C)C(=O)O; Piperidide = C1CCN(*)CC1; Ac5c = NC1(C(=O)O)CCCC1; Aze = O=C(O)[C@@H]1CCN1; Isopentyl = CC(C)CC*; X14 = CC1(C)CCN(*)C1; Sar = CNCC(=O)O

Columns and labels:
[1] = tested on: Human pancreatic cancer cell line AsPC-1; experiment: Measurement of AsPC-1 cell growth inhibition (AsPC-1 CGI); type: cell-based; conditions: 96 h
How it was run: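 AsPC-1 cells in 15% FBS RPMI-1640 were exposed to test compound for 96 hours at 37° C, with CellTiter-Glo as endpoint.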

[2] = target: T1, Kras and SOS1 (biotin-tagged human Kras loaded with GDP, His-tagged human SOS1) (Homo sapiens, UniProt P01116, G12D); experiment: Protein-protein interaction inhibition between Kras and SOS1 (KrasGl2D-SOS PPI) using AlphaScreen; type: binding; conditions: AlphaScreen; biotin-tagged human Kras loaded with GDP, His-tagged human SOS1; read-out: KRAS G12D-SOS PPI IC50
T1 construct: made in house; host or cells: E. coli (stated for Kras only)
T1 sequence (P01116 1-188 isoform P01116-2 G12D): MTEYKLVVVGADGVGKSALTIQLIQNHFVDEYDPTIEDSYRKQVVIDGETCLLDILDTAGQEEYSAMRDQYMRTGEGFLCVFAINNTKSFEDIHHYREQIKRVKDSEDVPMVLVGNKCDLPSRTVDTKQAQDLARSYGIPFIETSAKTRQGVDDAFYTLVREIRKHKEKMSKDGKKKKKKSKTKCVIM
How it was run: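 Binding between SOS1 and Kras is detected as bead-proximity luminescence: illuminate Ni-conjugated donors (680 nm), collect 520-620 nm emission from streptavidin-conjugated acceptors; Kras carries biotin and GDP loaded after purification, SOS1 carries a His tag.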

Compound	IC50 [1] [nM]	IC50 [2] [nM]
CC[C@H](C)[C@@H]1NC(=O)[C@H](CC(F)(F)F)N(C)C(=O)C[C@@H](C(=O)N2C3CCC2COC3)N(C)C(=O)[C@H](C2CCCCC2)N(C)C(=O)C2(CCCC2)NC(=O)[C@@H]2CCCN2C(=O)[C@H](CCc2ccc(C(F)(F)F)c(Cl)c2)NC(=O)CN(C)C(=O)[C@H](CC2CCCC2)N(C)C(=O)CN(C)C(=O)CN(C)C1=O [Compound 1057] ([NMeAbu(4,4,4-F3)]I[Sar][Sar][NMeAla(cPent)][Sar][hPhe(3-Cl-4-CF3)]P[Ac5c][NMeChg][NMeD]-{3Oxa8azabicyclo(3.2.1)octane}; lactam N-11)	100 to 500	1.2
CC(C)C[C@H]1C(=O)N[C@@H](C2CCCC2)C(=O)N(C)CC(=O)N(C)CC(=O)N(C)[C@@H](CC2CCCCC2)C(=O)N(C)CC(=O)N[C@@H](CCc2ccc(C(F)(F)F)c(Cl)c2)C(=O)N2CCC[C@H]2C(=O)NC2(CCCC2)C(=O)N(C)[C@@H](C(C)C)C(=O)N(C)[C@H](C(=O)N2CCCCC2)CC(=O)N1C [Compound 1064] ([NMeL][Gly(cPent)][Sar][Sar][NMeCha][Sar][hPhe(3-Cl-4-CF3)]P[Ac5c][NMeV][NMeD]-Piperidide; lactam N-11)	100 to 500	4.3
CC[C@H](C)[C@@H]1NC(=O)[C@H](CC(C)C)N(C)C(=O)C[C@@H](C(=O)N(C)C)N(C)C(=O)[C@H](C2CCCC2)N(C)C(=O)C2(CCCC2)NC(=O)[C@H](Cc2cccnc2)N(C)C(=O)[C@H](CCc2ccc(C(F)(F)F)c(Cl)c2)NC(=O)CN(C)C(=O)[C@H](CC2CCCCC2)N(C)C(=O)[C@@H]2CCN2C(=O)[C@H](C)N(C)C1=O [Compound 1071] ([NMeL]I[NMeA][Aze][NMeCha][Sar][hPhe(3-Cl-4-CF3)][NMe3Pal][Ac5c][NMeGly(cPent)][NMeD]-NMe2; lactam N-11)	100 to 500	1.3
CC[C@H](C)[C@@H]1NC(=O)[C@H](CC(C)C)N(C)C(=O)C[C@@H](C(=O)N2CCCCC2)N(C)C(=O)[C@H](C2CCCCC2)N(C)C(=O)C2(CCCC2)NC(=O)[C@@H]2CCCN2C(=O)[C@H](CCc2ccc(C(F)(F)F)c(Cl)c2)NC(=O)CN(C)C(=O)[C@H]([C@@H](C)OC)N(C)C(=O)CN(C)C(=O)CN(C)C1=O [Compound 1072] ([NMeL]I[Sar][Sar][NMeT](Me)[Sar][hPhe(3-Cl-4-CF3)]P[Ac5c][NMeChg][NMeD]-Piperidide; lactam N-11)	100 to 500	1.2
CC[C@H](C)[C@@H]1NC(=O)[C@H](CC(C)C)N(C)C(=O)C[C@@H](C(=O)N2CCCCC2)N(C)C(=O)[C@H](C2CCCC2)N(C)C(=O)C2(CCCC2)NC(=O)[C@@H]2CCCN2C(=O)[C@H](CCc2ccc(C(F)(F)F)c(Cl)c2)NC(=O)CN(C)C(=O)[C@H](CC2CCCCC2)N(C)C(=O)CN(C)C(=O)CN(C)C1=O [Compound 1073] ([NMeL]I[Sar][Sar][NMeCha][Sar][hPhe(3-Cl-4-CF3)]P[Ac5c][NMeGly(cPent)][NMeD]-Piperidide; lactam N-11)	20 to 50	2.1
CC[C@H](C)[C@@H]1NC(=O)[C@H](CC(C)C)N(C)C(=O)C[C@@H](C(=O)N2CCOCC2)N(C)C(=O)[C@H]([C@@H](C)CC)N(C)C(=O)C2(CCCC2)NC(=O)[C@@H]2CCCN2C(=O)[C@H](CCc2ccc(C(F)(F)F)c(F)c2)NC(=O)CN(C)C(=O)[C@H](C2CCCC2)N(C)C(=O)[C@@H]2CCN2C(=O)[C@H](C)N(C)C1=O [Compound 1098] ([NMeL]I[NMeA][Aze][NMeGly(cPent)][Sar][hPhe(3-F,4-CF3)]P[Ac5c][NMeI][NMeD]-Morpholide; lactam N-11)	20 to 50	5.6
C=CC[C@]1(C)NC(=O)[C@@H]2CCCN2C(=O)[C@H](CCc2ccc(C(F)(F)F)c(Cl)c2)NC(=O)CN(C)C(=O)[C@H](CC2CCCCC2)N(C)C(=O)CN(C)C(=O)CN(C)C(=O)[C@H]([C@@H](C)CC)NC(=O)[C@H](CC(C)C)N(C)C(=O)C[C@@H](C(=O)N2CCCCC2)N(C)C(=O)[C@H](C(C)C)N(C)C1=O [Compound 1109] ([NMeL]I[Sar][Sar][NMeCha][Sar][hPhe(3-Cl-4-CF3)]P[X2][NMeV][NMeD]-Piperidide; lactam N-11)	100 to 500	23
CC[C@H](C)[C@@H]1NC(=O)[C@H](CC2CCC2)N(C)C(=O)C[C@@H](C(=O)N2CCCCC2)N(C)C(=O)[C@H](C(C)C)N(C)C(=O)C2(CCCC2)NC(=O)[C@@H]2CCCN2C(=O)[C@H](CCc2ccc(C(F)(F)F)c(Cl)c2)NC(=O)CN(C)C(=O)[C@H](CC2CCCCC2)N(C)C(=O)[C@@H]2CCN2C(=O)[C@H](C)N(C)C1=O [Compound 1114] ([NMeCba]I[NMeA][Aze][NMeCha][Sar][hPhe(3-Cl-4-CF3)]P[Ac5c][NMeV][NMeD]-Piperidide; lactam N-11)	100 to 500	11
CC[C@H](C)[C@@H]1NC(=O)[C@H](COCCC(C)C)N(C)C(=O)C[C@@H](C(=O)N2CCCCC2)N(C)C(=O)[C@H](C2CCCCC2)N(C)C(=O)C2(CCCC2)NC(=O)[C@@H]2CCCN2C(=O)[C@H](CCc2ccc(C(F)(F)F)c(Cl)c2)NC(=O)CN(C)C(=O)[C@H](CC2CCCCC2)N(C)C(=O)CN(C)C(=O)CN(C)C1=O [Compound 1115] ([NMeS](Isopentyl)I[Sar][Sar][NMeCha][Sar][hPhe(3-Cl-4-CF3)]P[Ac5c][NMeChg][NMeD]-Piperidide; lactam N-11)	100 to 500	2.5
CC[C@H](C)[C@@H]1NC(=O)[C@H](CC(C)C)N(C)C(=O)C[C@@H](C(=O)N2CCCCC2)N(C)C(=O)[C@H](C(C)C)N(C)C(=O)C2(CCCC2)NC(=O)[C@@H]2CCCN2C(=O)[C@H](CCc2ccc(C(F)(F)F)c(Cl)c2)NC(=O)CN(C)C(=O)[C@H](CC2CCC2)N(C)C(=O)CN(C)C(=O)CN(C)C1=O [Compound 1124] ([NMeL]I[Sar][Sar][NMeCba][Sar][hPhe(3-Cl-4-CF3)]P[Ac5c][NMeV][NMeD]-Piperidide; lactam N-11)	100 to 500	7
CC[C@H](C)[C@@H]1NC(=O)[C@H](CC(C)C)N(C)C(=O)C[C@@H](C(=O)N2CCCCC2)N(C)C(=O)[C@H](C2CCC2)N(C)C(=O)C2(CCCC2)NC(=O)[C@@H]2CCCN2C(=O)[C@H](CCc2ccc(C(F)(F)F)c(Cl)c2)NC(=O)CN(C)C(=O)[C@H](CC2CCCCC2)N(C)C(=O)CN(C)C(=O)CN(C)C1=O [Compound 1128] ([NMeL]I[Sar][Sar][NMeCha][Sar][hPhe(3-Cl-4-CF3)]P[Ac5c][NMeGly(cBu)][NMeD]-Piperidide; lactam N-11)	100 to 500	2.1
CC[C@H](C)[C@@H]1NC(=O)[C@H](CC(C)C)N(C)C(=O)C[C@@H](C(=O)N2CCCCC2)N(C)C(=O)[C@H](C(C)C)N(C)C(=O)[C@@](C)(CC)NC(=O)[C@@H]2CCCN2C(=O)[C@H](CCc2ccc(C(F)(F)F)c(Cl)c2)NC(=O)CN(C)C(=O)[C@H](CC2CCCCC2)N(C)C(=O)CN(C)C(=O)CN(C)C1=O [Compound 1130] ([NMeL]I[Sar][Sar][NMeCha][Sar][hPhe(3-Cl-4-CF3)]P[dIva][NMeV][NMeD]-Piperidide; lactam N-11)	100 to 500	4.4
CC[C@H](C)[C@@H]1NC(=O)[C@H](CC(C)C)N(C)C(=O)C[C@@H](C(=O)N2CCC(C)(C)C2)N(C)C(=O)[C@H](C2CCCCC2)N(C)C(=O)C2(CCCC2)NC(=O)[C@@H]2CCCN2C(=O)[C@H](CCc2ccc(C(F)(F)F)c(Cl)c2)NC(=O)CN(C)C(=O)[C@H](CC2CCCCC2)N(C)C(=O)CN(C)C(=O)CN(C)C1=O [Compound 1150] ([NMeL]I[Sar][Sar][NMeCha][Sar][hPhe(3-Cl-4-CF3)]P[Ac5c][NMeChg][NMeD]-X14; lactam N-11)	50 to 100	0.52
CC[C@H](C)[C@@H]1NC(=O)[C@H](CC(C)C)N(C)C(=O)C[C@@H](C)NC(=O)[C@H](C2CCCC2)N(C)C(=O)C2(CCCC2)NC(=O)[C@H](C)N(C)C(=O)[C@H](CCc2ccc(C(F)(F)F)c(Cl)c2)NC(=O)CN(C)C(=O)[C@H](Cc2ccc(C)cc2)N(C)C(=O)[C@@H]2CCN2C(=O)[C@H](C)N(C)C1=O [Compound 1153] (cyclo([Ac5c][NMeGly(cPent)][d(β3hA)][NMeL]I[NMeA][Aze][NMePhe(4-Me)][Sar][hPhe(3-Cl-4-CF3)][NMeA]))	100 to 500	2.5
CC[C@H](C)[C@@H]1NC(=O)[C@H](CC(C)C)N(C)C(=O)C[C@@H](C(=O)N2CCC(C)CC2)NC(=O)[C@H]([C@@H](C)CC)N(C)C(=O)C2(CCCC2)NC(=O)[C@@H]2CCCN2C(=O)[C@H](CCc2ccc(C(F)(F)F)c(Cl)c2)NC(=O)CN(C)C(=O)[C@H](CC2CCCCC2)N(C)C(=O)CN(C)C(=O)CN(C)C1=O [Compound 1172] ([NMeL]I[Sar][Sar][NMeCha][Sar][hPhe(3-Cl-4-CF3)]P[Ac5c][NMeI]D-{Piperidide(4-Me)}; lactam N-11)	100 to 500	6.8
CC[C@H](C)[C@@H]1NC(=O)[C@H](CC(C)C)N(C)C(=O)C[C@@H](C(=O)N2CCOCC2)N(C)C(=O)[C@H](C(C)C)N(C)C(=O)C2(CCCC2)NC(=O)[C@@H]2CCCN2C(=O)[C@H](CCc2ccc(C(F)(F)F)c(Cl)c2)NC(=O)CN(C)C(=O)[C@H](CC2CCCCC2)N(C)C(=O)[C@@H]2CCN2C(=O)[C@H](C)N(C)C1=O [Compound 1178] ([NMeL]I[NMeA][Aze][NMeCha][Sar][hPhe(3-Cl-4-CF3)]P[Ac5c][NMeV][NMeD]-Morpholide; lactam N-11)	50 to 100	1
